Where a name gives a salt, the structure may show the parent alone.

Drawing on patent US20140224680A1, “KIT-OF-PARTS” (BOEHRINGER INGELHEIM VETMEDICA GMBH, priority 2013, published 2014), this text covers lipophilicity for 1 compound.

The nature of the data set: lipophilicity profile. Type of data set: physicochemical. As to conditions: neutral pH values versus acidic pH values. From the text: Usually, EC/HPMC films show sustained release behavior more or less independent of pH. […] This, together with the coating applied, is expected to result in a slower release at neutral pH values, sufficient to use the respective multi-layered particles for the application of this drug for the treatment of animals like cats.

Turning to `COc1ccc(CCN2CCC[C@H](CN3CCc4cc(OC)c(OC)cc4CC3=O)C2)cc1OC` [cilobradine hydrochloride], the lipophilicity result is listed as “slightly more lipophilic at neutral pH values than at acidic pH values”.
